Laboratory results from article PMC11876601 (Molecular Systems Biology, 2025).
Where two headings read alike, the source gives them in different places.

Assays:
Assay in all cases: cells
[1] = tested on: Capan-1; design: Viability of PDAC cell lines, ATPlite luminescence, 11-dose single-agent curve fit; settings: Homo sapiens, CAPAN-1, 72 h, read-out: EC50 [nM]
In short: (§1)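 screening used cells plated at 1000 to 5000 per well one day before treatment. Final DMSO was 0.2%. Each plate held untreated negative-control wells and 5 µM staurosporine positive-control wells.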

[2] = tested on: MiaPaCa-2; design: ATPlite luminescence viability of PDAC cell lines, 11-dose single-agent curves, 4-parameter fit; settings: Homo sapiens, MIA PaCa-2, 72 h, read-out: EC50 [nM]
In short: (§2)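 Drug-combination screening used cells plated at 1000 to 5000 per well one day before treatment. Final DMSO was 0.2%. Each plate held untreated negative-control wells and 5 µM staurosporine positive-control wells.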

[3] = tested on: HPDE; design: ATPlite luminescence viability of PDAC cell lines, 11-dose single-agent curves, 4-parameter fit; settings: HPDE, 72 h, read-out: EC50 [nM]
In short: as §2

[4] = tested on: BxPC-3; design: ATPlite luminescence viability of PDAC cell lines, 11-dose single-agent curves, 4-parameter fit; settings: Homo sapiens, BXPC-3, 72 h, read-out: EC50 [nM]
In short: as §2

[5] = tested on: HuP-T4; design: ATPlite luminescence viability of PDAC cell lines, 11-dose single-agent curves, 4-parameter fit; settings: Homo sapiens, HuP-T4, 72 h, read-out: EC50 [nM]
In short: as §2

[6] = tested on: Colo-357; design: ATPlite luminescence viability of PDAC cell lines, 11-dose single-agent curves, 4-parameter fit; settings: Homo sapiens, COLO357, 72 h, read-out: EC50 [nM]
In short: as §2

[7] = tested on: FAMPAC; design: ATPlite luminescence viability of PDAC cell lines, 11-dose single-agent curves, 4-parameter fit; settings: 72 h, read-out: EC50 [nM]
In short: as §2

[8] = tested on: AsPC-1; design: ATPlite luminescence viability of PDAC cell lines, 11-dose single-agent curves, 4-parameter fit; settings: Homo sapiens, ASPC1, 72 h, read-out: EC50 [nM]
In short: as §2

[9] = tested on: Suit2-07; design: ATPlite luminescence viability of PDAC cell lines, 11-dose single-agent curves, 4-parameter fit; settings: 72 h, read-out: EC50 [nM]
In short: as §2

[10] = tested on: Dan-G; design: ATPlite luminescence viability of PDAC cell lines, 11-dose single-agent curves, 4-parameter fit; settings: 72 h, read-out: EC50 [nM]
In short: as §2

[11] = tested on: PaTu-8988-T; design: ATPlite luminescence viability of PDAC cell lines, 11-dose single-agent curves, 4-parameter fit; settings: Homo sapiens, PaTu 8988t, 72 h, read-out: EC50 [nM]
In short: as §2

[12] = tested on: PANC-1; design: ATPlite luminescence viability of PDAC cell lines, 11-dose single-agent curves, 4-parameter fit; settings: Homo sapiens, PANC-1, 72 h, read-out: EC50 [nM]
In short: as §2

[13] = tested on: PSN-1; design: ATPlite luminescence viability of PDAC cell lines, 11-dose single-agent curves, 4-parameter fit; settings: Homo sapiens, PSN1, 72 h, read-out: EC50 [nM]
In short: as §2

[14] = tested on: Capan-1; design: ATPlite luminescence viability of PDAC cell lines, 11-dose single-agent curves, 4-parameter fit; settings: Homo sapiens, CAPAN-1, 72 h, read-out: EC50 [nM]
In short: as §2

[15] = tested on: AsPC-1; design: Viability of PDAC cell lines, ATPlite luminescence, 11-dose single-agent curve fit; settings: Homo sapiens, ASPC1, 72 h, read-out: EC50 [nM]
In short: as §1

[16] = tested on: PANC-1; design: Viability of PDAC cell lines, ATPlite luminescence, 11-dose single-agent curve fit; settings: Homo sapiens, PANC-1, 72 h, read-out: EC50 [nM]
In short: as §1

[17] = tested on: MiaPaCa-2; design: Viability of PDAC cell lines, ATPlite luminescence, 11-dose single-agent curve fit; settings: Homo sapiens, MIA PaCa-2, 72 h, read-out: EC50 [nM]
In short: as §1

[18] = tested on: Colo-357; design: Viability of PDAC cell lines, ATPlite luminescence, 11-dose single-agent curve fit; settings: Homo sapiens, COLO357, 72 h, read-out: EC50 [nM]
In short: as §1

[19] = tested on: Suit2-07; design: Viability of PDAC cell lines, ATPlite luminescence, 11-dose single-agent curve fit; settings: 72 h, read-out: EC50 [nM]
In short: as §1

[20] = tested on: Dan-G; design: Viability of PDAC cell lines, ATPlite luminescence, 11-dose single-agent curve fit; settings: 72 h, read-out: EC50 [nM]
In short: as §1

[21] = tested on: FAMPAC; design: Viability of PDAC cell lines, ATPlite luminescence, 11-dose single-agent curve fit; settings: 72 h, read-out: EC50 [nM]
In short: as §1

| SMILES | EC50 [2] | EC50 [4] | EC50 [6] | EC50 [8] | EC50 [12] | EC50 [3] | EC50 [5] | EC50 [7] | EC50 [9] | EC50 [10] | EC50 [11] | EC50 [13] | EC50 [14] | also measured |
| --- | --- | --- | --- | --- | --- | --- | --- | --- | --- | --- | --- | --- | --- | --- |
| CC1(COc2ccc3c(c2)ncn3-c2ccc3cccc(N4CCC(N)CC4)c3n2)COC1 [Crenolanib] | 2190 nM | 3600 nM | 5080 nM | > 10000 nM | 8300 nM | 3500 nM | > 10000 nM | 3340 nM | 4860 nM | 5940 nM | 5450 nM | 5250 nM |  | EC50 [1]: 3710 nM |
| CN1CCN(c2ccc3nc(-c4c(N)c5c(F)cccc5[nH]c4=O)[nH]c3c2)CC1 [Dovitinib] | 1680 nM |  | 4350 nM | > 10000 nM | 4250 nM | 4540 nM | 3570 nM | 2170 nM | 863 nM | 3430 nM | 3150 nM | 2720 nM | 4250 nM |  |
| Cc1nc(Nc2ncc(C(=O)Nc3c(C)cccc3Cl)s2)cc(N2CCN(CCO)CC2)n1 [Dasatinib] | 4.67 nM | 78.9 nM | 4740 nM |  |  | 580 nM | 139 nM | 48.5 nM | 2600 nM | 8640 nM | 16.6 nM | 37.1 nM | 704 nM | EC50 [15]: > 10000 nM; EC50 [16]: 446 nM |
| Cc1cnc(Nc2ccc(OCCN3CCCC3)cc2)nc1Nc1cccc(S(=O)(=O)NC(C)(C)C)c1 [Fedratinib] | 400 nM | 659 nM | 1070 nM | 622 nM | 2200 nM | 1280 nM | 8310 nM | 1010 nM | 320 nM | 1630 nM | 274 nM | 827 nM | 2030 nM |  |
| CN1CCN(c2ccc(C(=O)Nc3n[nH]c4ccc(Cc5cc(F)cc(F)c5)cc34)c(NC3CCOCC3)c2)CC1 [Entrectinib] | 2720 nM | 3500 nM | 4900 nM | 5960 nM | 5790 nM | 3900 nM | > 10000 nM | 5900 nM | > 10000 nM | > 10000 nM | > 10000 nM | > 10000 nM | 6260 nM |  |
| Nc1cc(C(F)(F)F)c(-c2cc(N3CCOCC3)nc(N3CCOCC3)n2)cn1 [Buparlisib] | 572 nM |  | 403 nM | 1030 nM | 703 nM | 1130 nM | 1300 nM | 752 nM | 479 nM | 493 nM | 724 nM | 638 nM | 663 nM |  |
| CC(=O)c1cc2c(o1)C(=O)c1ccccc1C2=O [Napabucasin] | 176 nM | 493 nM | 6740 nM | 644 nM | 1840 nM | 390 nM | 1650 nM | 322 nM | > 10000 nM | 5300 nM | 220 nM | 588 nM | 6090 nM |  |
| COc1cc(Nc2ncc(F)c(Nc3ccc4c(n3)N(COP(=O)(O)O)C(=O)C(C)(C)O4)n2)cc(OC)c1OC [Fostamatinib] | 946 nM | 4790 nM | 1410 nM |  |  | > 10000 nM | 3770 nM | > 10000 nM | 1360 nM | 1010 nM | 1190 nM | 2020 nM | 2290 nM | EC50 [15]: > 10000 nM; EC50 [16]: 658 nM |
| CC(C)NC(=O)[C@H]1CC[C@@H](n2/c(=N/C(=O)c3ccc(F)cc3)[nH]c3ccc(CN4CCC(C(C)(C)O)CC4)cc32)CC1 [Belizatinib] | 308 nM | 1420 nM | 7390 nM | 496 nM | 1860 nM | 1270 nM | > 10000 nM |  | 599 nM | 4630 nM | 580 nM | 1340 nM |  | EC50 [1]: 8120 nM; EC50 [21]: 3220 nM |

Now from value to molecule, other results behind:

| EC50 [2] | EC50 [4] | EC50 [6] | EC50 [8] | EC50 [12] | SMILES | EC50 [3] | EC50 [5] | EC50 [7] | EC50 [9] | EC50 [10] | EC50 [11] | EC50 [13] | EC50 [14] | also measured |
| --- | --- | --- | --- | --- | --- | --- | --- | --- | --- | --- | --- | --- | --- | --- |
| 335 nM | 739 nM | 9250 nM | 1160 nM | > 10000 nM | Cc1ccc(C(=O)Nc2ccc(CN3CCN(C)CC3)c(C(F)(F)F)c2)cc1C#Cc1cnc2cccnn12 [Ponatinib] | 1930 nM | > 10000 nM | 830 nM | 618 nM | 1200 nM | 357 nM | 620 nM | > 10000 nM |  |
| 3630 nM | 4970 nM | 5250 nM | 6090 nM | 10000 nM | Cc1ccc(C(=O)OCc2ccc([C@@H](CN)C(=O)Nc3ccc4cnccc4c3)cc2)c(C)c1 [Netarsudil] | > 10000 nM | 5200 nM | 5930 nM | > 10000 nM | 1590 nM | 4320 nM | > 10000 nM | > 10000 nM |  |
| > 10000 nM | > 10000 nM | 347 nM | > 10000 nM | > 10000 nM | C=CC(=O)Nc1cc(Nc2nccc(-c3cn(C)c4ccccc34)n2)c(OC)cc1N(C)CCN(C)C [Osimertinib] | 542 nM | 5300 nM | > 10000 nM | > 10000 nM | 2560 nM | > 10000 nM | 5530 nM | 5860 nM |  |
| 2370 nM | 4820 nM | 7270 nM | 8730 nM | 7120 nM | C=CC(=O)Nc1cccc(Nc2nc(Nc3ccc(N4CCN(C(C)=O)CC4)cc3OC)ncc2C(F)(F)F)c1 [Rociletinib] | 3460 nM | > 10000 nM | 3580 nM | 2750 nM | 6290 nM | 4940 nM | 2080 nM | 6270 nM |  |
| 475 nM | 1190 nM | 1610 nM | 529 nM | 1780 nM | C1=N/C2=N/c3ccc(OCCN4CCCC4)c(c3)COC/C=C/COCc3cccc(c3)C(=C1)N2 [Pacritinib] | 1340 nM | 2500 nM | 1280 nM | 654 nM | 2100 nM | 477 nM | 971 nM | 2210 nM |  |
|  | > 10000 nM |  |  |  | CN(C)C[C@@H]1CCn2cc(c3ccccc32)C2=C(C(=O)NC2=O)c2cn(c3ccccc23)CCO1 [Ruboxistaurin] | > 10000 nM | > 10000 nM | > 10000 nM |  |  | > 10000 nM | > 10000 nM |  | EC50 [17]: 6440 nM; EC50 [1]: 8680 nM; EC50 [18]: 5.38 nM; EC50 [15]: 8110 nM; EC50 [19]: 3050 nM; EC50 [20]: 5180 nM; EC50 [16]: 1620 nM |
